From US8124364B2, “Biotin derivatives” (Glycorex Transplantation AB, priority 2000, dated 2012) come the findings set out here.

In one test the target is avidin (Gallus gallus, UniProt P02701). The experiment in a line: Assessment of avidin adsorption on a column conditioned with biotin trimer, avidin by ELISA. The test is classed as binding. The procedure:
An avidin-agarose column that was conditioned with a biotin trimer (i.e. FIG. 4, compound #2) was primed with phosphate buffer. Following this, 20 mL avidin-solution with 1 mg avidin/mL in PBS was recirculated through a biotin-avidin-agarose-column at 1.0 mL/min (1.6 cm/min). Three volumes of the avidin solution (3×20 mL) were processed and aliquots were drawn from the reservoir before start of the recirculation, then after 2 main and in 5 min intervals. The aliquots were analyzed for the quantity of avidin in them using an ELISA technique developed by Mitra Medical Technology AB. The dotted line represented the theoretically expected if no saturation effect has occurred. The column is saturated after about 40 min (2 vol.) when about 16 mg (80%) of, avidin has been bound. Signs of saturation was seen after about 20 min (1.0 vol.) when the experimental curve begin to deviate from the theoretical curve which occurred when about 10 mg of Avidin had been bound to the column.
After a 40 min recirculation, about 16 mg of avidin was bound, i.e. 8 mg/mL biotin-avidin-agarose. This corresponds to a 1:1 molar ration between the avidin coupled to agarose and the avidin adsorbed to the biotin-trimer. Initial saturation effects were seen after about one recirculated volume. After 2 volumes processed no further avidin was bound.
(In an ELISA, binding on a coated surface is turned into a signal by an enzyme label.)

For another test, the target named is T1, Mitra Avidin-Agarose (Gallus gallus, UniProt P02701).
T1 construct: Mitra
T1 sequence (P02701 25-152): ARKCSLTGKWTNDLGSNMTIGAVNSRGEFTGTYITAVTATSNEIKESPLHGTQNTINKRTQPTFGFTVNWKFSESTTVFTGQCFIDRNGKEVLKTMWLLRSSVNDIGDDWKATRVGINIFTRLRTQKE
The experiment in a line: Adsorption of biotin-trimer to avidin-agarose column (conditioning), concentration in recirculated fluid by ELISA. In kind it is binding. Particulars: 2 mL Mitra Avidin-Agarose; 5 mL of 1 mg/mL biotin-trimer in PBS recirculated at 1 mL/min for 20 minutes; end of recirculation. The procedure:
Two mL of Mitra Avidin-Agarose was packed into a column housing and was washed with >10 mL of PBS at a flow rate of 1 mL/min (1.6 cm/min). Five mL of a 1 mg/mL solution of biotin-trimer in PBS was recirculated through the avidin-column at 1 mL/min for 20 minutes. At end of the recirculation, a sample (0.5 mL) was drawn from the recirculated solution and analysed by an ELISA technique developed by Mitra Medical Technology AB. The biotin-avidin-agarose-column was washed with phosphate buffer at 1 mL/min for 20 minutes. By determining the concentration of biotin-trimer in the recirculated fluid, the amount of adsorbed biotin-trimer was estimated to about 1.9 mg i.e. 0.95 mg/mL of gel at the end of recirculation.
Biotin-trimer was adsorbed to 2 mL of Mitra Avidin-Agarose. […] If one biotin-trimer is bound per available binding site this would correspond to […] biotin-trimer/mL. As about 0.95 mg biotin-trimer was bound per mL avidin-agarose it can be assumed that the adsorbent was saturated with biotin-trimer.

Chain of avidin (P02701 25-152): as above

As for `O=C(CCCCC1OCC2NC(=O)NC21)NCCOCCOCCNC(=O)c1cc(C(=O)NCCOCCOCCNC(=O)CCCCC2OCC3NC(=O)NC32)cc(C(=O)NCCOCCOCCNC(=O)CCCCC2OCC3NC(=O)NC32)c1` (stereo not drawn) [biotin-trimer], the “time until signs of saturation” value at avidin (1.0 vol.) is given as “about 20 min”. For the same molecule, the “avidin bound at saturation of the column” value on avidin (20 mL of 1 mg avidin/mL in PBS recirculated at 1.0 mL/min, after about 40 min (2 vol.)) is given as “about 16 mg”. The “avidin bound when signs of saturation were seen” value at avidin (after about 20 min (1.0 vol.), experimental curve begins to deviate from theoretical curve) is given as “about 10 mg”. Besides, on avidin (after about 40 min (2 vol.)), the “share of avidin bound at saturation” value is reported as roughly 80%. The “time until the column is saturated” value at avidin (recirculation at 1.0 mL/min, 2 vol.) is on record as “about 40 min”. For the same molecule, the “amount of adsorbed biotin-trimer” value on Mitra Avidin-Agarose is reported as “about 1.9 mg”.
